According to PubChem BioAssay AID248 (DTP/NCI, 2004):
Where “and” joins values, the source holds several entries; their conditions need not be identical. Identical values can stand only once. Inconclusive results and toxic doses are left out. Rule as the data show it: active = T/C of 150% or more; inactive = T/C below 125%.

System: L1210 leukemia ip in BDF1 mice, survival T/C
Assay: NCI In Vivo Anticancer Drug Screen. Data for tumor model L1210 Leukemia (intraperitoneal) in B6D2F1 (BDF1) mice
Conditions: endpoint: mean survival time, higher = longer survival
In short: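 Tumor was transplanted into mice, which were then dosed with test compound or vehicle alone. Survival was recorded for each group, and the treated figure was expressed relative to the control figure.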

[1] = dose: 100.0 mg/kg/injection, schedule: Q04DX003 (ip), vehicle: Klucel (hydroxypropylcellulose) (HPC)
[2] = dose: 200.0 mg/kg/injection, schedule: Q04DX003 (ip), vehicle: Klucel (hydroxypropylcellulose) (HPC)
[3] = dose: 400.0 mg/kg/injection, schedule: Q04DX003 (ip), vehicle: Klucel (hydroxypropylcellulose) (HPC)
[4] = dose: 100.0 mg/kg/injection, schedule: Q01DX009 (ip), vehicle: Klucel (hydroxypropylcellulose) (HPC)
[5] = dose: 200.0 mg/kg/injection, schedule: Q01DX009 (ip), vehicle: Klucel (hydroxypropylcellulose) (HPC)
[6] = dose: 400.0 mg/kg/injection, schedule: Q01DX009 (ip), vehicle: Klucel (hydroxypropylcellulose) (HPC)
[7] = dose: 100.0 mg/kg/injection, schedule: Q04DX002 (ip), vehicle: Klucel (hydroxypropylcellulose) (HPC)
[8] = dose: 200.0 mg/kg/injection, schedule: Q04DX002 (ip), vehicle: Klucel (hydroxypropylcellulose) (HPC)
[9] = dose: 100.0 mg/kg/injection, schedule: Q01DX001 (ip), vehicle: saline
[10] = dose: 200.0 mg/kg/injection, schedule: Q01DX001 (ip), vehicle: saline
[11] = dose: 400.0 mg/kg/injection, schedule: Q01DX001 (ip), vehicle: saline
[12] = dose: 400.0 mg/kg/injection, schedule: Q04DX002 (ip), vehicle: Klucel (hydroxypropylcellulose) (HPC)

Measured: T/C

CCCCCC(CN(C)C)C(=O)/C=C/c1ccc(Cl)cc1 (stereo not drawn)
inactive: dose: 12.5 mg/kg/injection, schedule: Q01DX009 (sc), vehicle: other 100 % of control | dose: 25.0 mg/kg/injection, schedule: Q01DX009 (sc), vehicle: other 100 % of control | dose: 50.0 mg/kg/injection, schedule: Q01DX009 (sc), vehicle: other 93 % of control | dose: 50.0 mg/kg/injection, schedule: Q04DX003 (sc), vehicle: steriod suspending solution 95 % of control | dose: 75.0 mg/kg/injection, schedule: Q01DX009 (sc), vehicle: other 98 % of control | dose: 100.0 mg/kg/injection, schedule: Q01DX001 (sc), vehicle: steriod suspending solution 91 % of control | dose: 115.0 mg/kg/injection, schedule: Q01DX009 (sc), vehicle: other 100 % of control | dose: 200.0 mg/kg/injection, schedule: Q01DX001 (sc), vehicle: steriod suspending solution 116 % of control

COC1c2c(nc3ccccc3c2C(=O)O)-c2ccccc2C1(C)C (stereo not drawn)
inactive: [1] 104 % of control | [2] 104 % of control | [3] 106 % of control

CC(C)(C)c1ccc(OCC(=O)O)c(Cl)c1
inactive: dose: 100.0 mg/kg/injection, schedule: Q01DX009 (ip), vehicle: saline with Tween-80 91 % of control | dose: 200.0 mg/kg/injection, schedule: Q01DX009 (ip), vehicle: saline with Tween-80 101 % of control

CCS(=O)(=O)Cc1ccccc1
inactive: [4] 100 % of control | [5] 106 % of control | [6] 102 % of control

CN(C)C(=S)SCCC(=O)O
inactive: [7] 94 % of control | dose: 100.0 mg/kg/injection, schedule: Q04DX002 (ip), vehicle: saline 103 % of control | [8] 88 % of control | dose: 200.0 mg/kg/injection, schedule: Q04DX002 (ip), vehicle: saline 100 % of control | dose: 400.0 mg/kg/injection, schedule: Q04DX002 (ip), vehicle: saline 100 % of control

COC(=O)c1c([N+](=O)[O-])ncn1C1OC(COC(C)=O)C(OC(C)=O)C1OC(C)=O (stereo not drawn)
inactive: [9] 102 % of control | [10] 103 % of control | [11] 94 % of control

CCCOC(=O)C#CC(=O)OCCC
inactive: dose: 1.56 mg/kg/injection, schedule: Q01DX001 (ip), vehicle: carboxymethylcellulose (CMC) 101 % of control | dose: 1.56 mg/kg/injection, schedule: Q01DX009 (ip), vehicle: carboxymethylcellulose (CMC) 93 % of control | dose: 1.56 mg/kg/injection, schedule: Q04DX002 (ip), vehicle: carboxymethylcellulose (CMC) 92 % of control and 98 % of control | dose: 1.56 mg/kg/injection, schedule: Q04DX003 (ip), vehicle: carboxymethylcellulose (CMC) 101 % of control | dose: 3.13 mg/kg/injection, schedule: Q01DX001 (ip), vehicle: carboxymethylcellulose (CMC) 94 % of control | dose: 3.13 mg/kg/injection, schedule: Q01DX009 (ip), vehicle: carboxymethylcellulose (CMC) 92 % of control and 86 % of control | dose: 3.13 mg/kg/injection, schedule: Q04DX002 (ip), vehicle: carboxymethylcellulose (CMC) 92 % of control and 98 % of control | dose: 3.13 mg/kg/injection, schedule: Q04DX003 (ip), vehicle: carboxymethylcellulose (CMC) 98 % of control | dose: 6.25 mg/kg/injection, schedule: Q01DX001 (ip), vehicle: carboxymethylcellulose (CMC) 97 % of control | dose: 6.25 mg/kg/injection, schedule: Q01DX009 (ip), vehicle: carboxymethylcellulose (CMC) 93 % of control and 89 % of control | dose: 6.25 mg/kg/injection, schedule: Q04DX002 (ip), vehicle: carboxymethylcellulose (CMC) 103 % of control and 104 % of control | dose: 6.25 mg/kg/injection, schedule: Q04DX003 (ip), vehicle: carboxymethylcellulose (CMC) 106 % of control

C=CCO[Si](OCC=C)(OCC=C)OCC=C
inactive: dose: 75.0 mg/kg/injection, schedule: Q01DX001 (ip), vehicle: other 101 % of control | dose: 150.0 mg/kg/injection, schedule: Q01DX001 (ip), vehicle: other 98 % of control

CC/C=C(CC)/C(CC)=C(/CC)CO
inactive: dose: 100.0 mg/kg/injection, schedule: Q01DX001 (ip), vehicle: saline with Tween-80 103 % of control | dose: 200.0 mg/kg/injection, schedule: Q01DX001 (ip), vehicle: saline with Tween-80 95 % of control | dose: 400.0 mg/kg/injection, schedule: Q01DX001 (ip), vehicle: saline with Tween-80 92 % of control

C=Cc1c(C)c2cc3[nH]c(cc4nc(cc5nc(cc1[nH]2)C(C)=C5CCC(=O)O)C(CCC(=O)O)=C4C)c(C)c3C=C
inactive: dose: 100.0 mg/kg/injection, schedule: Q04DX003 (ip), vehicle: dextrose 96 % of control | dose: 200.0 mg/kg/injection, schedule: Q04DX003 (ip), vehicle: dextrose 100 % of control | dose: 400.0 mg/kg/injection, schedule: Q01DX009 (ip), vehicle: saline with Tween-80 88 % of control | dose: 400.0 mg/kg/injection, schedule: Q04DX003 (ip), vehicle: dextrose 100 % of control

CC(=O)Nc1ccc(OCCCOc2ccc([N+](=O)[O-])cc2)cc1
inactive: [1] 101 % of control | [2] 95 % of control | [3] 91 % of control

COC(OC)c1cccc([N+](=O)[O-])c1
inactive: dose: 50.0 mg/kg/injection, schedule: Q01DX001 (ip), vehicle: saline 111 % of control | [9] 107 % of control | [10] 102 % of control | [11] 100 % of control

NCCc1cc(O)c(O)c(S(=O)(=O)c2ccc(N)cc2)c1
inactive: dose: 75.0 mg/kg/injection, schedule: Q01DX009 (ip), vehicle: saline 107 % of control | dose: 150.0 mg/kg/injection, schedule: Q01DX009 (ip), vehicle: saline 105 % of control

Cc1c(Cl)cccc1NC(=O)C(c1ccccc1)c1ccccc1
inactive: [4] 89 % of control | [1] 101 % of control | [5] 94 % of control | [2] 86 % of control | [6] 93 % of control | [3] 91 % of control

Cc1cc(SCC(=O)O)sc1C
inactive: [7] 92 % of control | [8] 107 % of control | [12] 107 % of control

CC[C@H](c1ccc(O)cc1)[C@@H](CC)c1ccc(O)cc1
inactive: dose: 62.5 mg/kg/injection, schedule: Q01DX010 (sc), vehicle: steriod suspending solution 104 % of control | dose: 125.0 mg/kg/injection, schedule: Q01DX010 (sc), vehicle: steriod suspending solution 95 % of control | dose: 250.0 mg/kg/injection, schedule: Q01DX010 (sc), vehicle: steriod suspending solution 104 % of control

O=[N+]([O-])/C(N=Nc1ccc2ccccc2c1)=N\Nc1ccc2ccccc2c1
inactive: dose: 10.0 mg/kg/injection, schedule: Q01DX001 (ip), vehicle: acetone 98 % of control | dose: 20.0 mg/kg/injection, schedule: Q01DX001 (ip), vehicle: acetone 94 % of control | dose: 40.0 mg/kg/injection, schedule: Q01DX001 (ip), vehicle: acetone 88 % of control | dose: 75.0 mg/kg/injection, schedule: Q01DX001 (ip), vehicle: acetone 89 % of control | dose: 300.0 mg/kg/injection, schedule: Q01DX001 (ip), vehicle: acetone 89 % of control

Oc1ccccc1/C=N/C(O)C(Cl)(Cl)Cl (stereo not drawn)
inactive: [7] 96 % of control | [8] 114 % of control | [12] 107 % of control

CCCCOP(=O)(C=C(C(C)=O)C(C)=O)OCCCC
inactive: [1] 95 % of control | [2] 119 % of control | [3] 97 % of control

[Cl][Hg][c]1ccccc1N=Nc1ccccc1
inactive: dose: 3.0 mg/kg/injection, schedule: Q01DX009 (ip), vehicle: saline with Tween-80 90 % of control | dose: 6.0 mg/kg/injection, schedule: Q01DX009 (ip), vehicle: saline with Tween-80 101 % of control | dose: 12.0 mg/kg/injection, schedule: Q01DX009 (ip), vehicle: saline with Tween-80 98 % of control | dose: 12.5 mg/kg/injection, schedule: Q01DX009 (ip), vehicle: saline with Tween-80 100 % of control

O=C1/C(=C/c2cccnc2)CCc2ccccc21
inactive: dose: 25.0 mg/kg/injection, schedule: Q01DX009 (ip), vehicle: Klucel (hydroxypropylcellulose) (HPC) 98 % of control | dose: 50.0 mg/kg/injection, schedule: Q01DX009 (ip), vehicle: Klucel (hydroxypropylcellulose) (HPC) 106 % of control | [4] 97 % of control | dose: 100.0 mg/kg/injection, schedule: Q04DX003 (ip), vehicle: saline with Tween-80 104 % of control | [5] 112 % of control | dose: 200.0 mg/kg/injection, schedule: Q04DX003 (ip), vehicle: saline with Tween-80 97 % of control

Cc1cccc(C)c1NC(=S)N(CCC#N)Cc1ccccc1
inactive: [4] 107 % of control | [5] 94 % of control | [6] 96 % of control

CN(C)c1ccc(C=Nc2cccc(Cl)c2)cc1
inactive: [1] 91 % of control | [2] 93 % of control | [3] 91 % of control
